The results in this text go back to BindingDB's records for doi:10.1046/j.1471-4159.1998.70062252.x (Paris-Sud University, 1998).

Where “and” joins values, the source holds several entries; their conditions need not be identical. Equal values may be shown once.

In the experiment the target is 5-hydroxytryptamine receptor 4 (Homo sapiens, UniProt Q13639).
Sequence of 5-hydroxytryptamine receptor 4 (Q13639 whole entry): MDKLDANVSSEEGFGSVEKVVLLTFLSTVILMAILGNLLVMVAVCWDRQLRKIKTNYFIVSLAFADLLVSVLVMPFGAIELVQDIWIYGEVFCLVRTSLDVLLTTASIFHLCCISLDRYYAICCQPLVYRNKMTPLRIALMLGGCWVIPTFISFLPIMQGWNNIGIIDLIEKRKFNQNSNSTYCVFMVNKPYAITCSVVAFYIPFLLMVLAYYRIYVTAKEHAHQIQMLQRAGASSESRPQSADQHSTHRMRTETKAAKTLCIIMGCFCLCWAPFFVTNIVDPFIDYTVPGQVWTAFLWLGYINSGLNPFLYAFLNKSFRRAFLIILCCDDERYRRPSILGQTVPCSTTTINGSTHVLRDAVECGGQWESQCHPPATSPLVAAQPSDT
Consider `Cn1cc(C(=O)OCC2CCN(CCNS(C)(=O)=O)CC2)c2ccccc21` [GR 113808], for which the Ki worked out at 0.07 nM. Compound `COc1cc(N)c(Cl)cc1C(=O)NC1CN2CCC1CC2` (stereo not drawn) [ZACOPRIDE,R] returned a Ki above 10000 nM. As for `CCn1c(=O)n(C(=O)NC2CC3CCC(C2)N3C)c2ccccc21` (stereo not drawn) [BIMU 1], the Ki is 373 nM and 123 nM and 66 nM and 38.8 nM.
